This note sets out measurements from US9745310B2 (SK BIOPHARMACEUTICALS CO., LTD., priority 2015, dated 2017).

Sequence of human mGluR5 receptor (P41594 21-1212): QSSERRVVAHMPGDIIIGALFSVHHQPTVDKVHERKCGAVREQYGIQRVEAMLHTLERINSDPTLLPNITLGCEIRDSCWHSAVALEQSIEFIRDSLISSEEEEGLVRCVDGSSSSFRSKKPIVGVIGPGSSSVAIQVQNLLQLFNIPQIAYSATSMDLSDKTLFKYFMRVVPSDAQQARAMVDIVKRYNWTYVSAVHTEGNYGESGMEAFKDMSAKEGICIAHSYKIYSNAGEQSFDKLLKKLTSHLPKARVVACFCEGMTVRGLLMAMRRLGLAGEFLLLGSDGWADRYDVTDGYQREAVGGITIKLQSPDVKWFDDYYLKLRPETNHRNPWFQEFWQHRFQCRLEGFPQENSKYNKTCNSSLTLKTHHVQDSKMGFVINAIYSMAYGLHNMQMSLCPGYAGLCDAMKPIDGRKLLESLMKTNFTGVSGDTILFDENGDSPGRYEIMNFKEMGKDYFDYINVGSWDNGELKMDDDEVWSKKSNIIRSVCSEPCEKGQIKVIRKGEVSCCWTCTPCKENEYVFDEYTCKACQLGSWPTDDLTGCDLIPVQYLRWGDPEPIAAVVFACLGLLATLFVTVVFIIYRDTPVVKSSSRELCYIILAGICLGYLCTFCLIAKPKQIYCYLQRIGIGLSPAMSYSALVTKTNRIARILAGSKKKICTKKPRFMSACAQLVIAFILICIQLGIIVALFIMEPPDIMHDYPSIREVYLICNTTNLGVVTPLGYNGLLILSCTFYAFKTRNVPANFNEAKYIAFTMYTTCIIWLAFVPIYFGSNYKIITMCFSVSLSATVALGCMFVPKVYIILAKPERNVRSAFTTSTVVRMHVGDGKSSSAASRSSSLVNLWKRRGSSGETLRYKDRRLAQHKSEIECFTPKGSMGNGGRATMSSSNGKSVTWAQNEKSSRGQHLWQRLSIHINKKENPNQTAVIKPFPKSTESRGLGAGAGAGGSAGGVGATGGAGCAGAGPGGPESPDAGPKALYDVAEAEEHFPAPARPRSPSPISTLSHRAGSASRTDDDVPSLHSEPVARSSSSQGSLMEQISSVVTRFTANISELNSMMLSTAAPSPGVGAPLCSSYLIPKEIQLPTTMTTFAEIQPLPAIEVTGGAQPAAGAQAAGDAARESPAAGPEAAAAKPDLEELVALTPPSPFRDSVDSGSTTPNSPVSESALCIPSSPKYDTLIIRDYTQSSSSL

The assay concerns the target human mGluR5 receptor (Homo sapiens (Human), UniProt P41594). Nature of the assay: Calcium influx assay based on fluorescence (mGluR5 PAM activity). To be noted: human mGluR5 receptor-overexpressed HEK293 cell line; L-glutamate EC20; Fluo-4, FLIPR. The method in brief:
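HEK293 cells overexpressing human mGluR5, loaded 1 h with Fluo-4 at 37° C. Compounds (10 μM to 10 nM final, 0.1–0.2% DMSO) added with an EC20 concentration of L-glutamate, and Ca2+ response read by FLIPR at room temperature. Activity scaled as 0% for EC20 glutamate alone and 100% for glutamate maximum.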
As for `Fc1ccc(-c2cnc3nc(COc4ccnc(F)c4)cn3n2)c(F)c1` [Example 183, 2-(2,4-difluorophenyl)-6-((2-fluoropyridin-4-yloxy)methyl)imidazo[1,2-b][1,2,4]triazine], the EC50 fell in the range of 100 to 500 nM.
Then `Nc1cccc(-c2cnc3nc(COc4ccccc4)cn3c2)c1` [Example 9, 6-(3-aminophenyl)-2-phenoxymethylimidazo[1,2-a]pyrimidine], with 500 to 1000 nM.
Consider `Nc1cc(Cl)ccc1-c1cnc2nc(COc3ccc(F)cc3)cn2c1` [Example 75, 5-chloro-2-[2-[(4-fluorophenoxy)methyl]imidazo[1,2-a]pyrimidin-6-yl]aniline], for which the EC50 is 100 to 500 nM.
Turning to `Fc1ccc(-c2cnc3nc(COc4ccccc4)cn3c2)cc1Cl` [Example 13, 6-(3-chloro-4-fluorophenyl)-2-phenoxymethylimidazo[1,2-a]pyrimidine], the EC50 lay in the range of 500 to 1000 nM.
As for `CSc1cc(F)ccc1-c1cnc2nc(COc3ccccn3)cn2c1` [Example 138, 6-(4-fluoro-2-methylsulfanyl-phenyl)-2-(2-pyridyloxymethyl)imidazo[1,2-a]pyrimidine], the EC50 lay in the range of 100 to 500 nM.
With `Cc1cc(F)ccc1-c1cnc2nc(COc3ccc(F)cc3)cn2c1` [Example 48, 6-(4-fluoro-2-methylphenyl)-2-(4-fluorophenoxymethyl)imidazo[1,2-a]pyrimidine], the EC50 was in the range of 100 to 500 nM.
The result for `Cc1cccc(C)c1-c1cnc2nc(COc3ccc(F)cc3)cn2c1` [Example 50, 6-(2,6-dimethylphenyl)-2-(4-fluorophenoxymethyl)imidazo[1,2-a]pyrimidine] reads 500 to 1000 nM; that for `COc1cc(F)ccc1-c1cnc2nc(COc3cccc(F)c3)cn2c1` [Example 42, 6-(4-fluoro-2-methoxyphenyl)-2-(3-fluorophenoxymethyl)imidazo[1,2-a]pyrimidine], 500 to 1000 nM.
Take `COc1ccc(-c2cnc3nc(COc4ccccc4)cn3c2)cn1` [Example 30, 6-(6-methoxypyridin-3-yl)-2-phenoxymethylimidazo[1,2-a]pyrimidine]: the EC50 was 500 to 1000 nM.
The result for `Fc1cccc(OCc2cn3cc(-c4ccc(F)nc4F)cnc3n2)c1` [Example 71, 6-(2,6-difluoro-3-pyridyl)-2-[(3-fluorophenoxy)methyl]imidazo[1,2-a]pyrimidine] reads 100 to 500 nM; that for `COc1ccc(-c2cnc3nc(COc4ccc(F)cc4)cn3c2)nc1` [Example 86, 2-[(4-fluorophenoxy)methyl]-6-(5-methoxy-2-pyridyl)imidazo[1,2-a]pyrimidine], 100 to 500 nM; that for `Fc1ccc(-c2cnc3nc(COc4ccncc4)cn3c2)c(F)c1` [Example 152, 6-(2,4-difluorophenyl)-2-(pyridin-4-yloxymethyl)imidazo[1,2-a]pyrimidine], 100 to 500 nM.
Then `Cc1ccc(-c2cnc3nc(COc4ccccn4)cn3c2)c(F)c1` [Example 117, 6-(2-fluoro-4-methyl-phenyl)-2-(2-pyridyloxymethyl)imidazo[1,2-a]pyrimidine], with 100 to 500 nM; and `Fc1cccc(OCc2cn3cc(-c4cccnc4F)cnc3n2)c1` [Example 82, 2-[(3-fluorophenoxy)methyl]-6-(2-fluoro-3-pyridyl)imidazo[1,2-a]pyrimidine], with 100 to 500 nM.
Then `COc1cc(C#N)ccc1-c1cnc2nc(COc3ccc(F)cn3)cn2c1` [Example 137, 4-[2-[(5-fluoro-2-pyridyl)oxymethyl]imidazo[1,2-a]pyrimidin-6-yl]-3-methoxy-benzonitrile], with 100 to 500 nM; and `Fc1ccc(OCc2cn3cc(-c4ccc(C(F)(F)F)nc4)cnc3n2)cc1` [Example 65, 2-[(4-fluorophenoxy)methyl]-6-[6-(trifluoromethyl)-3-pyridyl]imidazo[1,2-a]pyrimidine], with 100 to 500 nM; and `Nc1cc(-c2cnc3nc(COc4ccc(F)cn4)cn3c2)ccc1F` [Example 133, 2-fluoro-5-[2-[(5-fluoro-2-pyridyl)oxymethyl]imidazo[1,2-a]pyrimidin-6-yl]aniline], with 500 to 1000 nM.
As to `Oc1cc(F)ccc1-c1cnc2nc(COc3cccc(F)c3)cn2c1` [Example 57, 5-fluoro-2-[2-[(3-fluorophenoxy)methyl]imidazo[1,2-a]pyrimidin-6-yl]phenol], the EC50 is 100 to 500 nM.
`Fc1ccc(OCc2cn3cc(-c4ccccc4)cnc3n2)cc1` [Example 56, 2-[(4-fluorophenoxy)methyl]-6-phenyl-imidazo[1,2-a]pyrimidine]: the EC50 was in the range of 100 to 500 nM.
For `Nc1cc(F)ccc1-c1cnc2nc(COc3ccnc(F)c3)cn2c1` [Example 176, 5-fluoro-2-[2-[(2-fluoro-4-pyridyl)oxymethyl]imidazo[1,2-a]pyrimidin-6-yl]aniline], the EC50 was in the range of 100 to 500 nM.
Then `Fc1ccc(-c2cnc3nc(COc4ccc(F)cn4)cn3c2)cc1` [Example 129, 6-(4-fluorophenyl)-2-[(5-fluoro-2-pyridyl)oxymethyl)imidazo[1,2-a]pyrimidine], with 500 to 1000 nM.
The result for `Nc1cc(-c2cnc3nc(COc4ccccn4)cn3c2)ccc1F` [Example 134, 2-fluoro-5-[2-(2-pyridyloxymethyl)imidazo[1,2-a]pyrimidin-6-yl]aniline] reads 100 to 500 nM.
With `Nc1ccccc1-c1cnc2nc(COc3ccc(F)cc3)cn2c1` [Example 66, 2-[2-[(4-fluorophenoxy)methyl]imidazo[1,2-a]pyrimidin-6-yl]aniline], the EC50 lay within 100 to 500 nM.
`Fc1ccc(-c2cnc3nc(COc4ccnc(F)c4)cn3c2)c(F)c1` [Example 161, 6-(2,4-difluorophenyl)-2-(2-fluoropyridin-4-yloxymethyl)imidazo[1,2-a]pyrimidine]: the EC50 was in the range of 100 to 500 nM.
Then `Cc1ccncc1-c1cnc2nc(COc3cccc(F)c3)cn2c1` [Example 46, 6-(4-methylpyridin-3-yl)-2-(3-fluorophenoxymethyl)imidazo[1,2-a]pyrimidine], with 100 to 500 nM; and `COc1cc(F)ccc1-c1cnc2nc(COc3cc(F)ccn3)cn2c1` [Example 118, 6-(4-fluoro-2-methoxy-phenyl)-2-[(4-fluoro-2-pyridyl)oxymethyl)imidazo[1,2-a]pyrimidine], with 100 to 500 nM.
`Fc1ccc(-c2cnc3nc(COc4ccccc4)cn3c2)c(F)n1` [Example 33, 6-(2,6-difluoropyridin-3-yl)-2-phenoxymethylimidazo[1,2-a]pyrimidine]: the EC50 lay within 100 to 500 nM.
As for `Fc1ccc(-c2cnc3nc(COc4ccccn4)cn3c2)c(C(F)(F)F)c1` [Example 113, 6-[4-fluoro-2-(trifluoromethyl)phenyl]-2-(2-pyridyloxymethyl)imidazo[1,2-a]pyrimidine], the EC50 lay within 100 to 500 nM.
Turning to `Nc1cc(F)c(F)cc1-c1cnc2nc(COc3ccc(F)cc3)cn2c1` [Example 73, 4,5-difluoro-2-[2-[(4-fluorophenoxy)methyl]imidazo[1,2-a]pyrimidin-6-yl]aniline], the EC50 was 500 to 1000 nM.
Regarding `Fc1ccccc1-c1cnc2nc(COc3ccccc3)cn2c1` [Example 1, 6-(2-fluorophenyl)-2-phenoxymethylimidazo[1,2-a]pyrimidine], the EC50 fell in the range of 100 to 500 nM.
The result for `Fc1ccc(-c2cnc3nc(COc4ccccn4)cn3c2)c2c1OCO2` [Example 110, 6-(7-fluoro-2H-benzo[1,3]dioxol-4-yl)-2-(pyridin-2-yloxymethyl)imidazo[1,2-a]pyrimidine] reads 100 to 500 nM.
